PubChem BioAssay (NCI)
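Cultured in 96-well plates, cells were exposed to test compound for 48 hours across five concentrations. At the TGI there is no net growth.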

Assays:
Assay in all cases: growth of human tumour cells (NCI), 48 h
MDA-MB-435 = test system: MDA-MB-435
SN12C renal = test system: SN12C renal
DU-145 prostate = test system: DU-145 prostate
MDA-N = test system: MDA-N
SF-268 CNS = test system: SF-268 CNS
PC-3 prostate = test system: PC-3 prostate
MOLT-4 leukemia = test system: MOLT-4 leukemia
SK-MEL-5 melanoma = test system: SK-MEL-5 melanoma
CCRF-CEM leukemia = test system: CCRF-CEM leukemia
CAKI-1 renal = test system: CAKI-1 renal
RXF 393 renal = test system: RXF 393 renal
HCC-2998 colon = test system: HCC-2998 colon
OVCAR-8 ovarian = test system: OVCAR-8 ovarian
BT-549 breast = test system: BT-549 breast
MALME-3M melanoma = test system: MALME-3M melanoma
SNB-19 CNS = test system: SNB-19 CNS
NCI-H226 lung = test system: NCI-H226 lung
T-47D breast = test system: T-47D breast
HOP-92 NSCLC = test system: HOP-92 NSCLC
MCF7 breast = test system: MCF7 breast
U251 CNS = test system: U251 CNS
SK-MEL-28 melanoma = test system: SK-MEL-28 melanoma
UACC-257 melanoma = test system: UACC-257 melanoma
SF-539 CNS = test system: SF-539 CNS
TK-10 renal = test system: TK-10 renal
OVCAR-5 ovarian = test system: OVCAR-5 ovarian
HOP-62 NSCLC = test system: HOP-62 NSCLC
SK-OV-3 ovarian = test system: SK-OV-3 ovarian
MDA-MB-231 breast = test system: MDA-MB-231 breast
A498 renal = test system: A498 renal
K-562 leukemia = test system: K-562 leukemia
M14 melanoma = test system: M14 melanoma
IGROV1 ovarian = test system: IGROV1 ovarian
HT29 colon = test system: HT29 colon
ACHN renal = test system: ACHN renal
NCI-H522 lung = test system: NCI-H522 lung
COLO 205 colon = test system: COLO 205 colon
HL-60(TB) leukemia = test system: HL-60(TB) leukemia
HCT-116 colon = test system: HCT-116 colon
NCI/ADR-RES ovarian = test system: NCI/ADR-RES ovarian
786-0 renal = test system: 786-0 renal
OVCAR-4 ovarian = test system: OVCAR-4 ovarian
SR leukemia = test system: SR leukemia
RPMI-8226 leukemia = test system: RPMI-8226 leukemia
SK-MEL-2 melanoma = test system: SK-MEL-2 melanoma
OVCAR-3 ovarian = test system: OVCAR-3 ovarian
UACC-62 melanoma = test system: UACC-62 melanoma
NCI-H23 lung = test system: NCI-H23 lung
NCI-H460 lung = test system: NCI-H460 lung
SF-295 CNS = test system: SF-295 CNS
LOX IMVI melanoma = test system: LOX IMVI melanoma
KM12 colon = test system: KM12 colon
A549 NSCLC = test system: A549 NSCLC
UO-31 renal = test system: UO-31 renal
HCT-15 colon = test system: HCT-15 colon
EKVX NSCLC = test system: EKVX NSCLC
HS 578T breast = test system: HS 578T breast
SW-620 colon = test system: SW-620 colon
SNB-75 CNS = test system: SNB-75 CNS

Compound `O=C(C/C(=N/O)c1cc(-c2ccccc2)no1)c1ccccc1` has a TGI (MDA-MB-435) of over 100 µM, a TGI (SN12C renal) of over 100 µM and a TGI (DU-145 prostate) of over 100 µM. It also gave a TGI (MDA-N) of over 100 µM, a TGI (SF-268 CNS) of 42.5 µM and a TGI (PC-3 prostate) of over 100 µM. The TGI (MOLT-4 leukemia) was over 100 µM, the TGI (SK-MEL-5 melanoma) was over 100 µM and the TGI (CCRF-CEM leukemia) was over 100 µM. For the same compound, the TGI (CAKI-1 renal) was over 100 µM, the TGI (RXF 393 renal) was 41.2 µM and the TGI (HCC-2998 colon) was over 100 µM. For the same compound, the TGI (OVCAR-8 ovarian) was 40.3 µM, the TGI (BT-549 breast) was 75.1 µM and the TGI (MALME-3M melanoma) was over 100 µM. The TGI (SNB-19 CNS) was 73.3 µM, the TGI (NCI-H226 lung) was 56.7 µM and the TGI (T-47D breast) was over 100 µM. The TGI (HOP-92 NSCLC) was 58 µM, the TGI (MCF7 breast) was over 100 µM and the TGI (U251 CNS) was 60.5 µM. It also gave a TGI (SK-MEL-28 melanoma) of over 100 µM, a TGI (UACC-257 melanoma) of over 100 µM and a TGI (SF-539 CNS) of 35 µM. For the same compound, the TGI (TK-10 renal) was over 100 µM, the TGI (OVCAR-5 ovarian) was over 100 µM and the TGI (HOP-62 NSCLC) was 40.2 µM. It also gave a TGI (SK-OV-3 ovarian) of 38.4 µM, a TGI (MDA-MB-231 breast) of 46.1 µM and a TGI (A498 renal) of over 100 µM. For the same compound, the TGI (K-562 leukemia) was over 100 µM, the TGI (M14 melanoma) was over 100 µM and the TGI (IGROV1 ovarian) was 86 µM. The TGI (HT29 colon) was over 100 µM, the TGI (ACHN renal) was over 100 µM and the TGI (NCI-H522 lung) was 37.2 µM. The TGI (COLO 205 colon) was over 100 µM, the TGI (HL-60(TB) leukemia) was 74.6 µM and the TGI (HCT-116 colon) was 60 µM. It also gave a TGI (NCI/ADR-RES ovarian) of 69.1 µM, a TGI (786-0 renal) of 42.3 µM and a TGI (OVCAR-4 ovarian) of 65.8 µM. It also gave a TGI (SR leukemia) of over 100 µM, a TGI (RPMI-8226 leukemia) of over 100 µM and a TGI (SK-MEL-2 melanoma) of over 100 µM. The TGI (OVCAR-3 ovarian) was 41.9 µM, the TGI (UACC-62 melanoma) was over 100 µM and the TGI (NCI-H23 lung) was 43.3 µM. It also gave a TGI (NCI-H460 lung) of over 100 µM, a TGI (SF-295 CNS) of over 100 µM and a TGI (LOX IMVI melanoma) of over 100 µM. It also gave a TGI (KM12 colon) of over 100 µM, a TGI (A549 NSCLC) of over 100 µM and a TGI (UO-31 renal) of over 100 µM. It also gave a TGI (HCT-15 colon) of over 100 µM, a TGI (EKVX NSCLC) of over 100 µM and a TGI (HS 578T breast) of 66.6 µM.

With `CN(c1cn(C2CC[C@@H](CO)O2)c(=O)[nH]c1=O)C1CCCCC1` (some centres not stated) the TGI (MDA-MB-435) was over 100 µM, the TGI (SN12C renal) was over 100 µM and the TGI (DU-145 prostate) was over 100 µM. For the same compound, the TGI (SW-620 colon) was over 100 µM, the TGI (MDA-N) was over 100 µM and the TGI (SF-268 CNS) was over 100 µM. It also gave a TGI (PC-3 prostate) of over 100 µM, a TGI (MOLT-4 leukemia) of over 100 µM and a TGI (SK-MEL-5 melanoma) of over 100 µM. It also gave a TGI (CCRF-CEM leukemia) of over 100 µM, a TGI (RXF 393 renal) of over 100 µM and a TGI (HCC-2998 colon) of over 100 µM. It also gave a TGI (OVCAR-8 ovarian) of over 100 µM, a TGI (BT-549 breast) of over 100 µM and a TGI (MALME-3M melanoma) of over 100 µM. For the same compound, the TGI (SNB-19 CNS) was over 100 µM, the TGI (NCI-H226 lung) was over 100 µM and the TGI (T-47D breast) was over 100 µM. It also gave a TGI (HOP-92 NSCLC) of over 100 µM, a TGI (MCF7 breast) of over 100 µM and a TGI (U251 CNS) of over 100 µM. For the same compound, the TGI (SK-MEL-28 melanoma) was over 100 µM, the TGI (SF-539 CNS) was over 100 µM and the TGI (TK-10 renal) was over 100 µM. For the same compound, the TGI (OVCAR-5 ovarian) was over 100 µM, the TGI (SNB-75 CNS) was over 100 µM and the TGI (HOP-62 NSCLC) was over 100 µM. For the same compound, the TGI (SK-OV-3 ovarian) was over 100 µM, the TGI (MDA-MB-231 breast) was over 100 µM and the TGI (A498 renal) was over 100 µM. It also gave a TGI (K-562 leukemia) of over 100 µM, a TGI (M14 melanoma) of over 100 µM and a TGI (IGROV1 ovarian) of over 100 µM. It also gave a TGI (HT29 colon) of over 100 µM, a TGI (ACHN renal) of over 100 µM and a TGI (NCI-H522 lung) of over 100 µM. It also gave a TGI (COLO 205 colon) of over 100 µM, a TGI (HL-60(TB) leukemia) of over 100 µM and a TGI (HCT-116 colon) of over 100 µM. The TGI (NCI/ADR-RES ovarian) was over 100 µM, the TGI (786-0 renal) was over 100 µM and the TGI (OVCAR-4 ovarian) was over 100 µM. For the same compound, the TGI (SR leukemia) was over 100 µM, the TGI (RPMI-8226 leukemia) was over 100 µM and the TGI (OVCAR-3 ovarian) was over 100 µM. For the same compound, the TGI (UACC-62 melanoma) was over 100 µM, the TGI (NCI-H23 lung) was over 100 µM and the TGI (NCI-H460 lung) was over 100 µM. For the same compound, the TGI (SF-295 CNS) was over 100 µM, the TGI (LOX IMVI melanoma) was over 100 µM and the TGI (KM12 colon) was over 100 µM. It also gave a TGI (A549 NSCLC) of over 100 µM, a TGI (UO-31 renal) of over 100 µM and a TGI (HCT-15 colon) of over 100 µM. It also gave a TGI (HS 578T breast) of over 100 µM.
